Consider 74 compounds from PubChem BioAssay AID1996.

Converted amounts (≈) assume the structure as drawn.

The conditions of the data set: buffer; pH 7.4; 200.0 µM.
A word on the solubility (kinetic): it is the concentration staying in solution when a stock, usually in DMSO, is diluted into the medium. `Nc1nnc(SCc2ccccc2F)s1` showed a kinetic solubility greater than 36.2 µg/mL. Then `O=C(Nc1c(C(=O)O)[nH]c2ccccc12)c1cccc(C(F)(F)F)c1`, with greater than 52.2 µg/mL; and `O=C(COC(=O)C1C2CC3OC(=O)C1C3C2)Nc1ccccc1` (centres undefined), with greater than 47.3 µg/mL; and `CCOC(=O)NC1Cc2ccccc2C1Sc1ccccn1` (centres undefined), with 44.8 µg/mL (≈ 142 µM). Then `CSc1ccccc1C(=O)OCC(=O)Nc1cccnc1Cl`, with 15.6 µg/mL (≈ 46.3 µM); and `CCCCn1c(O)c(C(C)=NCc2ccc3c(c2)OCO3)c(=O)[nH]c1=O`, with 0.6 µg/mL (≈ 1.67 µM); and `CCN(CC(=O)Nc1c(F)cccc1F)C(=O)c1ccc(=O)[nH]c1`, with greater than 50.3 µg/mL. Compound `COc1ccc(C(=O)NCCNc2ccccc2[N+](=O)[O-])cc1` came in with a solubility (kinetic) of 36.3 µg/mL (≈ 115 µM). The compound `Cc1ccc(NC2SC(=O)N(Cc3cccc(C(=O)O)c3)C2=O)c(C)c1` (centres undefined) came in with a solubility (kinetic) of 53.1 µg/mL (≈ 143 µM). Then `N#Cc1nc(-c2ccc(F)cc2)oc1NCc1ccco1`, with 1.1 µg/mL (≈ 3.88 µM); and `CSc1nc(C)cc(Oc2ccc(OCC(N)=O)nn2)n1`, with greater than 46.1 µg/mL. As to `COC(=O)c1cc(C)nc(Sc2ccccc2NC(C)=O)n1`, the solubility (kinetic) was determined as 41.6 µg/mL (≈ 131 µM). Then `O=C(Nc1ccc2c(c1)C(=O)OC2)c1ccc(Cl)cc1Cl`, with 3 µg/mL (≈ 9.31 µM). Then `COc1ccc(C(=O)C2CCN(CC(=O)Nc3ccccc3F)CC2)cc1`, with 4.5 µg/mL (≈ 12.1 µM); and `Cn1c(-c2ccccc2)cnc1NCc1cc(Cl)ccc1O`, with 1.2 µg/mL (≈ 3.82 µM); and `O=C(Nc1ccc(O)cc1)c1ccc(NC(=O)C2CCCO2)cc1` (centres undefined), with greater than 49 µg/mL. Then `Cc1ccc2[nH]c(C(=O)N3CCN(C(c4ccccc4)c4ccccc4)CC3)cc2c1`, with 1 µg/mL (≈ 2.44 µM).

Take `O=C(NNC(=O)c1ccc([N+](=O)[O-])cc1)c1ccc(NS(=O)(=O)c2cccs2)cc1`: the kinetic solubility was greater than 67 µg/mL. Then `Cn1cccc1C(=O)NCc1ccc(S(N)(=O)=O)cc1`, with greater than 44 µg/mL; and `COc1ccc(-c2ncncc2-c2ccccc2)c(O)c1`, with 11.6 µg/mL (≈ 41.7 µM); and `O=C(Oc1cccc(OC(=O)N2CCCCC2)c1)N1CCCCC1`, with 20.8 µg/mL (≈ 62.6 µM). Compound `Cc1[nH]ccc(=O)c1OCC(=O)O` registered a solubility (kinetic) greater than 27.5 µg/mL. Then `Cc1nc(N)c(CC(Br)CBr)c(Cl)n1` (centres undefined), with 49.1 µg/mL (≈ 143 µM); and `COc1ccc(OC)c(N/C(C)=C/C(=O)c2ccncc2)c1`, with 36.9 µg/mL (≈ 124 µM); and `CC(=O)c1cccc(NC(=S)NCc2ccccc2)c1`, with 6.4 µg/mL (≈ 22.5 µM). In turn, `CN1CCN(C(=O)/C=C/c2ccc(Cl)c(Cl)c2)CC1` had a solubility (kinetic) of 41 µg/mL (≈ 137 µM).

In the case of `CCC(C(=O)O)N1C(=O)C2CCCCC2C1=O` (centres undefined), the kinetic solubility was greater than 35.9 µg/mL.

On to `COC(=O)c1cc(C(=O)Nc2ccc(Cl)cn2)cc([N+](=O)[O-])c1`, for which the kinetic solubility came to 2.5 µg/mL (≈ 7.45 µM). Then `Cc1ccc2nc(N3CCN(C)CC3)c(C=O)c(=O)n2c1`, with 41.3 µg/mL (≈ 144 µM); and `COc1ccc(NC(=O)c2c(N)cnn2C)cc1`, with greater than 36.9 µg/mL; and `COC(=O)c1ccc2nc(-c3cccc(N)c3)cn2c1`, with 33.5 µg/mL (≈ 125 µM).

In turn, `NC(=O)c1cc([N+](=O)[O-])cc2c1C=Cc1ccccc1O2` returned a solubility (kinetic) of 4.6 µg/mL (≈ 16.3 µM).

As to `COc1ccc(C2NC(=O)CCC2[N+](=O)[O-])cc1OC` (centres undefined), the solubility (kinetic) is greater than 42 µg/mL. In turn, `O=C(Nc1ccc(N2CCCCCC2)cc1)c1ccc[nH]1` returned a solubility (kinetic) of 18.7 µg/mL (≈ 66 µM). Then `Nc1nc(Cl)cc(-c2ccccc2)n1`, with 29.3 µg/mL (≈ 142 µM); and `CCN(CC)CC(O)Cn1c(-c2ccccc2Cl)nc2ccccc21` (centres undefined), with greater than 53.7 µg/mL. In turn, `COc1ccc(OC)c(N2C(=O)c3cccnc3C2=O)c1` came in with a kinetic solubility greater than 42.6 µg/mL.

`CCN(C(=O)c1cccs1)C1CCS(=O)(=O)C1` (centres undefined) came in with a kinetic solubility greater than 41 µg/mL. As for `O=C1NC(=S)N/C1=C\c1cccnc1`, the kinetic solubility is greater than 30.8 µg/mL. As for `Cc1cc(NC(=O)COC(=O)c2ccccc2O)no1`, the kinetic solubility stood at 7.9 µg/mL (≈ 28.6 µM). Then `COC(=O)c1cnc(Nc2cc(C)ccc2OC)c2ccccc12`, with 0.7 µg/mL (≈ 2.17 µM). Then `Cc1ccc(C)c(NC(=O)c2cc3ccccc3o2)c1`, with 10.9 µg/mL (≈ 41.1 µM); and `Cc1ccc(Cl)cc1NC(=O)CON=C(N)c1ccccc1`, with 32.4 µg/mL (≈ 102 µM); and `Cc1cccc(/C=C(\C(=O)O)c2ccc(S(=O)(=O)N3CCCC3)s2)c1`, with greater than 56.6 µg/mL.

`CCOc1ccc(C(C)NC(=O)c2cccs2)cc1OCC` (centres undefined) showed a solubility (kinetic) of 11.1 µg/mL (≈ 34.7 µM). Then `CSc1nc(-c2ccccc2)nc(NC(C)=O)c1C(C)=O`, with 3.9 µg/mL (≈ 12.9 µM).

`O=C(CCCNC(=O)c1ccc(Cl)cc1)Nc1nccs1` came in with a solubility (kinetic) of 10.3 µg/mL (≈ 31.8 µM).

Compound `Cc1c(C)n(-c2ccc(Cl)cc2)c2ncnc(N)c12` displayed a solubility (kinetic) of 7.4 µg/mL (≈ 27.1 µM). As to `O=C1CN(/N=C/c2ccc([N+](=O)[O-])o2)C(=O)N1`, the kinetic solubility is greater than 35.7 µg/mL. Then `O=c1[nH]c2cccnc2n1-c1ccc([N+](=O)[O-])cc1`, with 13.3 µg/mL (≈ 51.9 µM); and `Cc1ccc(S(=O)(=O)N(Cc2ccccc2)C(C)C)cc1`, with 5 µg/mL (≈ 16.5 µM); and `CCc1ccc(NC(=S)Nc2cccc3cnccc23)cc1`, with 11.6 µg/mL (≈ 37.7 µM). `CC(C)(C)c1cc(NC(=O)Nc2ccc(Cl)cc2Cl)no1` registered a kinetic solubility of less than 0.2 µg/mL. Then `Nc1nc(Nc2ccccc2F)nc(N2CCCC2)c1[N+](=O)[O-]`, with 25.8 µg/mL (≈ 81.1 µM).

Take `CC(=O)N1CCN(CC(c2ccccc2)c2ccccc2)CC1`: the kinetic solubility was determined as 38.7 µg/mL (≈ 125 µM). For the compound `O=C(Nc1ccccc1Cl)OC1CCCCC1`, the kinetic solubility is less than 0.5 µg/mL. The compound `Clc1cccc2c1CCN(Cc1nc(-c3cnccn3)no1)C2` registered a solubility (kinetic) of 33.9 µg/mL (≈ 103 µM). Then `Cc1nn(CC(=O)NCc2ccco2)c(C)c1[N+](=O)[O-]`, with greater than 41.7 µg/mL.

For the compound `O=C(O)c1cccc2c1C(=O)N(C1CCCC1)C2`, the solubility (kinetic) worked out at 34 µg/mL (≈ 139 µM). Then `CC(C)C1CC(CCN)(c2ccccc2)CCO1.O=C(O)C(=O)O` (centres undefined), with greater than 50.6 µg/mL.

`O=C(O)CNc1ccc(S(=O)(=O)C(F)(F)F)cc1[N+](=O)[O-]` showed a solubility (kinetic) of 44.7 µg/mL (≈ 136 µM). Compound `COCCNC(=O)COC(=O)c1cccnc1SC` showed a kinetic solubility greater than 42.6 µg/mL. Then `CCn1c(CN(C)c2ccccc2)nc2ccccc21`, with greater than 39.8 µg/mL.

As to `CC(C)Oc1ccc(C(=O)OC(C)C(=O)NC2CCCCC2C)cc1` (centres undefined), the kinetic solubility is 4.4 µg/mL (≈ 12.7 µM). Then `CCN1C(=O)CC(N2CCC(C(=O)N3CCCCCC3)CC2)C1=O` (centres undefined), with greater than 50.3 µg/mL. Compound `Cc1cccc(N2CC(C(=O)O)CC2=O)c1C` (centres undefined) yielded a solubility (kinetic) greater than 35 µg/mL.

Regarding `COc1ccc(C)cc1Nc1nc(C)nc2sc(C)cc12`, the solubility (kinetic) was 2.3 µg/mL (≈ 7.68 µM). Then `COc1ccc(C(=O)Nc2cccc(S(=O)(=O)N3CCCC3)c2)cc1S(=O)(=O)N1CCOCC1`, with 5.3 µg/mL (≈ 10.4 µM); and `O=C1CC(Cc2ccc(Cl)cc2)C(=O)N1c1cc(Cl)ccn1` (centres undefined), with 29.4 µg/mL (≈ 87.7 µM). Then `CCOc1ncccc1C(=O)NCCc1ccc(OC)cc1`, with greater than 45.1 µg/mL; and `O=C(O)/C=C/C(=O)NCCC(c1ccccc1)c1ccccc1`, with greater than 46.4 µg/mL.

In the case of `CC1N=C(c2ccccc2)c2cc(Br)ccc2NC1=O` (centres undefined), the solubility (kinetic) was greater than 49.4 µg/mL.

`CC(C)NC(=O)CCCc1c[nH]c2ccccc12` displayed a solubility (kinetic) greater than 36.7 µg/mL. Then `COCCCNC(=O)CN1C(=O)c2cccc3cccc1c23`, with greater than 44.8 µg/mL.
